Experiments:
[1] = Single oral dose of 14C-labeled 4-aminopyridine (1 mg/kg) in rats; conditions: for tissue-to-blood ratio: oral dose; for AUC / Cmax / Tmax / half-life: rat, plasma, po, 1 mg/kg
Method: (§1) Studies were performed in rats and dogs using “C-labeled 4-aminopyridine (1 mg/kg) given as a single oral gavage dose in solution.
In a single-dose study, rats were administered “C-labeled 4-aminopyridine (1 mg/kg) p.o. Three animals per time point were sacrificed 1, 3, 8, and 24 hours post-dose. Blood was collected and tissues were excised for determination of radioactivity.

[2] = Single oral dose of 14C-labeled 4-aminopyridine (1 mg/kg) in dogs; format: in vivo; conditions: dog, plasma, 1 mg/kg oral
Method: as §1

For `Nc1ccncc1` [^14C-4-Aminopyridine], the “radioactivity in tissue, percentage of the dose” value ([1]; blood, one hour post-dose) was 0.7%, the “radioactivity in tissue, percentage of the dose” value ([1]; carcass, 3 hours post-dose) was 15.4% and the “radioactivity in tissue, percentage of the dose” value ([1]; carcass, one hour post-dose) was 51%. The tissue-to-blood ratio ([1]; cerebellum) was 1.48, the tissue-to-blood ratio ([1]; cerebrum) was 3.07 and the AUC ([1]; female) was 506 ± 63.3 ng·h/mL. The Cmax ([1]; female) was 168 ± 15.7 ng/g, the Tmax ([1]; female) was 0.5 h and the half-life ([1]; female) was 1.4 ± 0.17 h. The “radioactivity in tissue, percentage of the dose” value ([1]; kidney, one hour post-dose) was 1.6%, the “radioactivity in tissue, percentage of the dose” value ([1]; liver, one hour post-dose) was 2.6% and the AUC ([1]; male) was 498 ± 17.6 ng·h/mL. The Cmax ([1]; male) was 189 ± 20.2 ng/g, the Tmax ([1]; male) was 1 h and the half-life ([1]; male) was 1.1 ± 0.04 h. For the same compound, the “dose accounted for in total” value ([1]; one hour post-dose) was 58.3%, the AUC ([2]; female, females) was 1920 ± 150 ng·h/mL and the Cmax ([2]; female, females) was 635 ± 103 ng/g. For the same compound, the Tmax ([2]; female, females) was 0.8 ± 0.3 h, the half-life ([2]; female, females) was 1.8 ± 0.04 h and the AUC ([2]; male, males) was 2030 ± 406 ng·h/mL. For the same compound, the Cmax ([2]; male, males) was 574 ± 123 ng/g, the Tmax ([2]; male, males) was 1 h and the half-life ([2]; male, males) was 2.1 ± 0.14 h.
